The source made the active and inactive calls. Rule as the data show it: actives have a measured IC50 and inactives only a lower limit.
target: Envelope glycoprotein gp160 (Human immunodeficiency virus 1, UniProt Q6QLK5); assay: inhibitors of HIV fusion peptide binding, primary screen, biochemical, uHTS, fluorescence dequenching (AID 1986)
Sequence (Q6QLK5 whole entry, the tested form may be a part): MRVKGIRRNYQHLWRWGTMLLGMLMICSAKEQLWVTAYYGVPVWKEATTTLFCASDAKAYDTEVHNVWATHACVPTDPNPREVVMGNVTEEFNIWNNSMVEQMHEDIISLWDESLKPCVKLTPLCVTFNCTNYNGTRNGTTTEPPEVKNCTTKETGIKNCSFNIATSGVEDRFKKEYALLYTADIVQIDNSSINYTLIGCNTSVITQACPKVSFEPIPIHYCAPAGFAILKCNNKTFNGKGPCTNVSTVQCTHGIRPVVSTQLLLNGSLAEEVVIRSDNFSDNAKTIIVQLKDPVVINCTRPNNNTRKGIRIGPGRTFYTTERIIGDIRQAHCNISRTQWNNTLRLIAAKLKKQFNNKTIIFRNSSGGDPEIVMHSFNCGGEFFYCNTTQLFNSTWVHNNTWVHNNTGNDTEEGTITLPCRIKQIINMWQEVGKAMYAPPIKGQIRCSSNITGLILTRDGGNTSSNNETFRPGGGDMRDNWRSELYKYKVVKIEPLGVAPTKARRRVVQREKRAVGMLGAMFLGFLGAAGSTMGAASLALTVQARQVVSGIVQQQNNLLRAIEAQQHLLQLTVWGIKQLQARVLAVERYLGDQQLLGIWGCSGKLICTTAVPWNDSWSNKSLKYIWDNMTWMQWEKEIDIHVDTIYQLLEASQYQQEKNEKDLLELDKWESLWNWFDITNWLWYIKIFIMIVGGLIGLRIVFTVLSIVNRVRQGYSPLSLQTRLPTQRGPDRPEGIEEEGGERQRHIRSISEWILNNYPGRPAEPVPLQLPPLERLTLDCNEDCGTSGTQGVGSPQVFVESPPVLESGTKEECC

SMILES	IC50
Cc1ccc(S(=O)(=O)Oc2ccc(/C=C3/C(=N)N4C(=NC3=O)SN=C4S(C)(=O)=O)cc2)cc1	16.9 µM (active)
O=C(O)c1ccccc1NC(=O)c1ccccc1Nc1ccccc1	17.5 µM (active)
O=C(O)CCCCCN1C(=O)/C(=C\c2cn(-c3ccccc3)nc2-c2cccs2)SC1=S	9.84 µM (active)
CCOC(=O)C1=C(C)N=c2s/c(=C\c3ccc(OCC(=O)O)cc3)c(=O)n2C1c1ccc(OC(C)C)cc1 (centres undefined)	16.3 µM (active)
